Experimental findings from patent publication US20170327556A1, “CARTILAGE-BINDING FUSION PROTEINS” (Merrimack Pharmaceuticals, Inc., priority 2013, published 2017) are described below.

“Also recorded” adds a separate entry of the source.

The first assay has as its system bovine cartilage explants. As to the kind of experiment: In vitro joint disease model (IL-1), explanted bovine cartilage: ^35S-sulfate incorporation. The assay is classed as cell-based. Conditions: supplied in every medium change for 8 or 12 days, IL-1, final 48 hrs, versus Disease control. The source says: Bovine cartilage explants (3 mm diameter, 1.2 mm thick) are harvested from the femoral patellar groove of 2-4 week old bovine calves. Knee joints are mounted by removing all tissue surrounding the femur, removing the femoral head with a bone saw or hack saw, and clamping in a tissue vice. Joints are aseptically opened, removing the patella, tibia and fibula. Using a 3 mm diameter disposable biopsy punch, approximately 80×3 mm diameter full thickness cartilage cores are punched from the femoral-patellar groove. A sterile knife is used to slice the cores at the cartilage-bone interface. Cores are then inserted into 3 mm diameter holes in a 1.2 mm thick sterile stainless steel plate and sliced flush with the plate using sterile razor blades to remove the excess core length, resulting in 3 mm diameter, 1.2 mm thick cartilage explants with the superficial zone cartilage intact.
Explants are cultured in 96-well plates in 300 μL of medium consisting of low glucose DMEM (1× Gibco 11885-084), Penicillin-Streptomycin (1×, Gibco 15140-122), ascorbic acid (20 μg/mL, Sigma A4403), proline (400 μM, Sigma P5607-256), non-essential amino acids (1×, Sigma M7145), and HEPES (100 mM, Gibco 15630-080). Explants from three animals (n=2-3 per animal) are used in each treatment condition for a total explant number of 8-9 per condition. Medium is changed every 2 days. On days 6 and 10, the medium is supplemented with 5 μCi/mL of ^35S-sodium sulfate (Perkin Elmer NEX041H001MC, 1 mCi).
Timepoints are taken at day 8 and 12: explant tissue is washed four times for 30 min each (2 hr total) in 1 mM unlabeled sodium sulfate in PBS. Each explant is weighed wet and frozen at −20° C. until digestion. Tissue digestion was performed with Proteinase K (Roche cat #3115879001) and each explant is digested in 1 mL 100 μg/mL Proteinase K in 50 mM Tris-HCL, 1 mM Calcium Chloride pH=8.0 buffer at 60° C. overnight. Measurement of sGAG content and DNA content is performed using standard assay methods such as those described in Hoemann, 2004, Methods in Molecular Medicine: Cartilage and Osteoarthritis. Totowa, N.J.: Humana Press Inc.; p. 127-52. ^35S-sulfate content of the digested cartilage explants was quantified by mixing 20 μL of digest with 250 μL of scintillation fluid (Perkin Elmer cat #1200-439) and counting with a WALLAC 1450 MICROBETA TRILUX scintillation counter.
Treatments were given at the following concentrations: wtIGF-1 13.3 nM=100 ng/mL (IGF-1 R&D systems 291-G1); GF-Fus1 (6x-Histidine tagged) 13.3 nM=135 ng/mL; GF-Fus2 (6x-Histidine tagged) 13.3 nM=140 ng/mL; and GF-Fus3 (6x-Histidine tagged)13.3 nM=181 ng/mL. All treatments included IL-1 and were given for either 4 days or the entire culture duration. The outcomes measured were ^35S-sulfate incorporation, DNA content, and sGAG content of plug at endpoint, and sGAG released to media for all media changes. Controls were either no treatment (Healthy) or IL-1 alone at 1 ng/mL (Disease).
FIG. 4 depicts a graph of cartilage matrix loss as measured by the cumulative percentage of total sGAG lost to the culture medium against time (days). Percentage loss is calculated by dividing the cumulative sGAG in the culture medium by the total sGAG present in the medium over the culture period plus the sGAG remaining in the explant at the end of culture. Cartilage matrix loss was reduced by each IGF fusion protein relative to the disease control at a level similar to wild-type IGF. New cartilage matrix synthesis (i.e. sulfated proteoglycan synthesis is measured by ^35S-Sulfate incorporation) during the final 48 hrs of cultures terminated at day 8 and day 12 is shown in FIGS. 5A and 5B, respectively. Cartilage matrix synthesis was increased compared to disease control by all fusion proteins (GF-Fus1, GF-Fus2, and GF-Fus3) and wild-type IGF when the fusion proteins were supplied in every medium change for the entire culture duration of 8 and 12 days (black bars). […]
As to “GF-Fus1: IGF-1 variant polypeptide Long [R^3]-IGF-1, no fused binding domain; used 6x-Histidine-tagged as control [reference compound]”, the “cartilage matrix synthesis (^35S-sulfate incorporation)” value is reported as “increase; also recorded: stimulated cartilage matrix biosynthesis”.

In the case of “GF-Fus6: IGF-1(LR3) fused to CNA344 CB domain”, the “cartilage matrix synthesis (^35S-sulfate incorporation)” value is “increase”.

With “wtIGF: Wild-type IGF-1 (R&D systems 291-G1), control [reference compound]”, the “cartilage matrix synthesis (^35S-sulfate incorporation)” value is given as “increased”.

As to “GF-Fus5: IGF-1(LR3) fused to CNA35 CB domain”, the “cartilage matrix synthesis (^35S-sulfate incorporation)” value was “increase”.

Take “GF-Fus3: C-terminal fusion IGF-1(LR3)-PRELP heparin binding domain”: the “cartilage matrix synthesis (^35S-sulfate incorporation)” value is reported as “increase; also recorded: stimulated cartilage matrix biosynthesis”.

Still in this assay, the particulars now being: treatment day 0-4 only, measured at day 8 and day 12, IL-1.
As to “GF-Fus3: C-terminal fusion IGF-1(LR3)-PRELP heparin binding domain”, the “cartilage matrix synthesis (^35S-sulfate incorporation) after fusion protein removal” value is “highest; also recorded: increased proteoglycan biosynthesis by an equivalent amount; also recorded: largest increase”.
